Results: patent publication US20210340131A1, “PESTICIDALLY ACTIVE ISOXAZOLINE D[…] AMIDE GROUP AND AN AZETIDINE SULFONE GROUP” (SYNGENTA CROP PROTECTION AG, priority 2018, published 2021)

Key:
Type in all cases: in vivo
Plutella xylostella [1] = assay: Plutella xylostella (diamond back moth), artificial diet, L2 larvae; conditions: 120 h, 5 days after infestation, read-out: effect in at least one of the two categories (mortality or growth inhibition)
Description: (§1) Plutella xylostella (Diamond Back Moth)
24-well microtiter plates with artificial diet were treated with aqueous test solutions prepared from 10′000 ppm DMSO stock solutions by pipetting. After drying, the plates were infested with L2 larvae (10 to 15 per well). The samples were assessed for mortality and growth inhibition in comparison to untreated samples 5 days after infestation.
The following compounds gave an effect of at least 80% in at least one of the two categories (mortality or growth inhibition) at an application rate of 200 ppm: A1

Diabrotica balteata = Diabrotica balteata (corn root worm), sprayed maize sprouts, L2 larvae; conditions: 96 h, spray on maize sprouts, 4 days after infestation, read-out: effect in at least one of the two categories (mortality or growth inhibition)
Description: Diabrotica balteata (Corn Root Worm)
Maize sprouts placed onto an agar layer in 24-well microtiter plates were treated with aqueous test solutions prepared from 10′000 ppm DMSO stock solutions by spraying. After drying, the plates were infested with L2 larvae (6 to 10 per well). The samples were assessed for mortality and growth inhibition in comparison to untreated samples 4 days after infestation. The following compounds gave an effect of at least 80% in at least one of the two categories (mortality or growth inhibition) at an application rate of 200 ppm: A1

Thrips tabaci = Thrips tabaci (onion thrips) feeding/contact activity; conditions: foliar, 144 h, spray on sunflower leaf discs, mixed ages, 6 days after infestation
Description: Thrips tabaci (Onion Thrips) Feeding/Contact Activity
Sunflower leaf discs were placed on agar in 24-well microtiter plates and sprayed with aqueous test solutions prepared from 10′000 ppm DMSO stock solutions. After drying the leaf discs were infested with a thrips population of mixed ages. The samples were assessed for mortality 6 days after infestation.

Euschistus heros = Euschistus heros (neotropical brown stink bug), sprayed soybean leaves, N2 nymphs; conditions: 120 h, spray on soybean leaves, 5 days after infestation, read-out: effect in at least one of the two categories (mortality or growth inhibition)
Description: Euschistus heros (Neotropical Brown Stink Bug)
Soybean leaves on agar in 24-well microtiter plates were sprayed with aqueous test solutions prepared from 10′000 ppm DMSO stock solutions. After drying the leaves were infested with N2 nymphs. The samples were assessed for mortality and growth inhibition in comparison to untreated samples 5 days after infestation.
The following compounds gave an effect of at least 80% in at least one of the two categories (mortality or growth inhibition) at an application rate of 200 ppm: A1, A2

Spodoptera littoralis = Spodoptera littoralis (Egyptian cotton leaf worm), sprayed cotton leaf discs, L1 larvae; conditions: foliar, 72 h, spray on cotton leaf discs, 3 days after infestation, read-out: control (mortality, anti-feeding effect or growth inhibition)
Description: Spodoptera littoralis (Egyptian Cotton Leaf Worm)
Cotton leaf discs were placed onto agar in 24-well microtiter plates and sprayed with aqueous test solutions prepared from 10′000 ppm DMSO stock solutions. After drying the leaf discs were infested with five L1 larvae. The samples were assessed for mortality, anti-feeding effect, and growth inhibition in comparison to untreated samples 3 days after infestation. Control of Spodoptera littoralis by a test sample is given when at least one of the categories mortality, anti-feedant effect, and growth inhibition is higher than the untreated sample.

Tetranychus urticae = Tetranychus urticae (two-spotted spider mite) feeding/contact activity; conditions: foliar, 192 h, spray on bean leaf discs, mixed population (mobile stages), 8 days after infestation
Description: Tetranychus urticae (Two-Spotted Spider Mite): Feeding/Contact Activity
Bean leaf discs on agar in 24-well microtiter plates were sprayed with aqueous test solutions prepared from 10′000 ppm DMSO stock solutions. After drying the leaf discs were infested with a mite population of mixed ages. The samples were assessed for mortality on mixed population (mobile stages) 8 days after infestation.

Plutella xylostella [2] = assay: Plutella xylostella (diamond back moth), artificial diet, eggs; conditions: 192 h, 8 days after infestation, read-out: effect in at least one of the two categories (mortality or growth inhibition)
Description: as §1
24-well microtiter plates with artificial diet were treated with aqueous test solutions prepared from 10′000 ppm DMSO stock solutions by pipetting. After drying, Plutella eggs were pipetted through a plastic stencil onto a gel blotting paper and the plate was closed with it. The samples were assessed for mortality and growth inhibition in comparison to untreated samples 8 days after infestation.
The following compounds gave an effect of at least 80% in at least one of the two categories (mortality or growth inhibition) at an application rate of 200 ppm: A2

COC(=O)N(C(=O)c1ccc(C2=NO[C@@](c3cc(Cl)c(F)c(Cl)c3)(C(F)(F)F)C2)cc1C)C1CN(S(=O)(=O)C(F)F)C1 [A1, methyl N-[4-[(5S)-5-(3,5-dichloro-4-fluoro-phenyl)-5-(trifluoromethyl)-4H-isoxazol-3-yl]-2-methyl-benzoyl]-N-[1-(difluoromethylsulfonyl)azetidin-3-yl]carbamate]
≥ 80%: percent effect (mortality or growth inhibition) at 200 ppm (Plutella xylostella [1]) | percent effect (mortality or growth inhibition) at 200 ppm (Diabrotica balteata) | mortality at 200 ppm (Thrips tabaci) | percent effect (mortality or growth inhibition) at 200 ppm (Euschistus heros) | percent control (mortality, anti-feedant effect or growth inhibition) at 200 ppm (Spodoptera littoralis) | mortality at 200 ppm (Tetranychus urticae)

CCOC(=O)N(C(=O)c1ccc(C2=NO[C@@](c3cc(Cl)c(F)c(Cl)c3)(C(F)(F)F)C2)cc1C)C1CN(S(=O)(=O)C(F)F)C1 [A2, ethyl N-[4-[(5S)-5-(3,5-dichloro-4-fluoro-phenyl)-5-(trifluoromethyl)-4H-isoxazol-3-yl]-2-methyl-benzoyl]-N-[1-(difluoromethylsulfonyl)azetidin-3-yl]carbamate]
≥ 80%: percent effect (mortality or growth inhibition) at 200 ppm (Euschistus heros) | percent effect (mortality or growth inhibition) at 200 ppm (Plutella xylostella [2]) | percent control (mortality, anti-feedant effect or growth inhibition) at 200 ppm (Spodoptera littoralis)
